Assay results reported in US20210290514A1, “An Antimicrobial Combination Composition Comprising Glycerol Derivatives and Bicyclic Compounds” (CLARIANT INTERNATIONAL LIMITED, priority 2018, published 2021).

Assays:
Experiment in all cases: in vitro growth inhibition of a microbial strain by compositions formulated to pH 5.5
Assay type in all cases: cell-based
[1] = tested on: Aspergillus brasilliensis
Procedure: (§1) Several antimicrobial combinations compositions were formulated to pH of 5.5. These compositions were tested for their ability to inhibit in vitro the growth of a microbial strain. “Green” indicates a substantial inhibition, “Yellow” indicates an intermediate inhibition, and “Red” indicates little to no inhibition.

Candida albicans = tested on: Candida albicans
Procedure: as §1

Echerichia coli = tested on: Echerichia coli
Procedure: as §1

Pseudomonas aeruginosa = tested on: Pseudomonas aeruginosa
Procedure: as §1

Staphylococcus aureus = tested on: Staphylococcus aureus
Procedure: as §1

Row | SMILES | antimicrobial activity, Aspergillus brasilliensis ([1]; 0.5%) | antimicrobial activity, Aspergillus brasilliensis ([1]; 0.8%) | antimicrobial activity, Aspergillus brasilliensis ([1]; 1.0%) | antimicrobial activity, Aspergillus brasilliensis ([1]; 1.5%) | antimicrobial activity, Candida albicans (Candida albicans; 0.5%) | antimicrobial activity, Candida albicans (Candida albicans; 0.8%) | antimicrobial activity, Candida albicans (Candida albicans; 1.0%) | antimicrobial activity, Candida albicans (Candida albicans; 1.5%) | antimicrobial activity, Echerichia coli (Echerichia coli; 0.5%) | antimicrobial activity, Echerichia coli (Echerichia coli; 0.8%) | antimicrobial activity, Echerichia coli (Echerichia coli; 1.0%) | antimicrobial activity, Echerichia coli (Echerichia coli; 1.5%) | antimicrobial activity, Pseudomonas aeruginosa (Pseudomonas aeruginosa; 0.5%) | antimicrobial activity, Pseudomonas aeruginosa (Pseudomonas aeruginosa; 0.8%) | antimicrobial activity, Pseudomonas aeruginosa (Pseudomonas aeruginosa; 1.0%) | antimicrobial activity, Pseudomonas aeruginosa (Pseudomonas aeruginosa; 1.5%) | antimicrobial activity, Staphylococcus aureus (Staphylococcus aureus; 0.5%) | antimicrobial activity, Staphylococcus aureus (Staphylococcus aureus; 0.8%) | antimicrobial activity, Staphylococcus aureus (Staphylococcus aureus; 1.0%) | antimicrobial activity, Staphylococcus aureus (Staphylococcus aureus; 1.5%)
1 | CCCCC(CC)COCC(O)CO (stereo not shown) [Velsan ethylhexylglycerin, 3-[(2-ethylhexyl)oxy]-1,2-propanediol] | Red | Red | Red | Red | Green | Green | Green | Green | Green | Green | Green | Green | Green | Green | Green | Green | Green | Green | Green | Green
2 | CCCCCCCCOCC(O)CO (stereo not shown) [Octylglycerin, 3-[(n-octyl)oxy]-1,2-propanediol] | Yellow | Green | Yellow | Yellow | Green | Green | Green | Green | Green | Green | Green | Green | Green | Green | Green | Green | Green | Green | Green | Green
